Active and inactive are the calls of the source. No cut-off for these calls is given here.
How the values were obtained:
MDA-MB-231 [1] = test: Induction of mitochondrial apoptosis in human MDA-MB-231 cells assessed as decrease in mitochondrial membrane potential levels at 5 uM measured after 24 hrs by flow cytometry; format: functional; design: scale not given: the % may be the effect or the level left
MCF7 [2] = test: Antiproliferative activity against human MCF-7 cells measured by MTT assay; format: functional, cell-based
MDA-MB-231 [3] = test: Cell cycle arrest in human MDA-MB-231 cells assessed as downregulation of cyclin E1 expression by Western blot analysis; format: functional, cell-based
MCF7 [4] = test: Cell cycle arrest in human MCF-7 cells assessed as downregulation of CDK4 expression by Western blot analysis; format: functional, cell-based
MDA-MB-231 [5] = test: Inhibition of PTP1B expression in human MDA-MB-231 cells by Western blot analysis; format: functional, cell-based
MDA-MB-231 [6] = test: Cell cycle arrest in human MDA-MB-231 cells assessed as downregulation of CDK6 expression by Western blot analysis; format: functional, cell-based
MCF7 [7] = test: Inhibition of PI3K in human MCF7 assessed as Akt phosphorylation by Western blot analysis
MDA-MB-231 [8] = test: Induction of mitochondrial apoptosis in human MDA-MB-231 cells assessed as late apoptotic cells at 5 uM measured after 24 hrs by FITC -annexin V/PI double staining based flow cytometric analysis (reference value: 2.3%); format: functional
[9] = Selective index, ratio of IC50 for HUVEC cells to IC50 of MDA-MB-231 cells; format: toxicity; conditions: human, HUVEC cells versus MDA-MB-231 cells; read-out: Selectivity Index
MDA-MB-231 [10] = test: Induction of mitochondrial apoptosis in human MDA-MB-231 cells assessed as membrane blebbing by Hoechst 33258 staining based fluorescence microscopic assay; format: functional, cell-based
MCF7 [11] = test: Inhibition of PI3K p85 phosphorylation in human MCF7 cells by Western blot analysis; format: cell-based
[12] = Toxicity in human MDA-MB-231 cells xenografted in BALB/c nude mouse assessed as change in body weight at 15 to 30 mg/kg, ip administered once for every other day for 20 days relative to control; format: organism-based; conditions: in vivo, 480 h, dose 15-30 mg/kg, time 20 day
MCF7 [13] = test: Effect on PI3K p85 expression in human MCF7 cells by Western blot analysis; format: functional, cell-based
MDA-MB-231 [14] = test: Induction of mitochondrial apoptosis in human MDA-MB-231 cells assessed as viable cells at 5 uM measured after 24 hrs by FITC -annexin V/PI double staining based flow cytometric analysis (Rvb =94.3%); format: functional; conditions: read-out: Activity
[15] = Selective index, ratio of IC50 for HUVEC cells to IC50 of MCF-7 cells; format: toxicity; conditions: human, HUVEC cells versus MCF-7 cells; read-out: Selectivity Index
MCF7 [16] = test: Induction of mitochondrial apoptosis in human MCF7 cells assessed as late apoptotic cells at 15 uM measured after 24 hrs by FITC -annexin V/PI double staining based flow cytometric analysis (reference value: 1.1%); format: functional
[17] = target: T1, Tyrosine-protein phosphatase non-receptor type 1 (Homo sapiens, UniProt P18031); test: Inhibition of PTP1B (unknown origin)
T1 sequence (P18031 whole entry): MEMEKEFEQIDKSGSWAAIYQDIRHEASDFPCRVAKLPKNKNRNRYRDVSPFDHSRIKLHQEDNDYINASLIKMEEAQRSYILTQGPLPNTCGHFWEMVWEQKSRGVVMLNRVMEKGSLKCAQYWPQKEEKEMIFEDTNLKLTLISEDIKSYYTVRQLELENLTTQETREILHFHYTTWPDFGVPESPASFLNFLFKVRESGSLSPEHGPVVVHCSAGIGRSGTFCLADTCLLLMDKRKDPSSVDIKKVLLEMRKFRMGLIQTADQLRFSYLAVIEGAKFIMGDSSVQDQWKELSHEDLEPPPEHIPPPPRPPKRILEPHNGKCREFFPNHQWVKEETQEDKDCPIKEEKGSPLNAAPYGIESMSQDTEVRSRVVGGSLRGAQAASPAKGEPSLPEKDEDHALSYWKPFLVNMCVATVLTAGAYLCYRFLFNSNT

MDA-MB-231 [18] = test: Antitumour activity against human MDA-MB-231 cells xenografted in BALB/c nude mouse assessed as downregulation of cyclin D3 level at 15 to 30 mg/kg, ip administered once for every other day for 20 days by Western blot analysis; format: functional, organism-based; conditions: dose 15-30 mg/kg, time 20.0 day
MCF7 [19] = test: Induction of mitochondrial apoptosis in human MCF-7 cells assessed as decrease in mitochondrial membrane potential levels at 5 uM measured after 24 hrs by flow cytometry; format: functional; design: scale not given: the % may be the effect or the level left
MCF7 [20] = test: Cytotoxicity against human MCF-7 cells measured by MTT assay; format: functional, cell-based
MCF7 [21] = test: Induction of apoptosis in human MCF-7 cells assessed as decrease in Bcl-2 level at 1.67 to 15 uM measured after 24 hrs by Western blot analysis; format: functional, cell-based; conditions: dose 1.67-15 µM
MDA-MB-231 [22] = test: Cell cycle arrest in human MDA-MB-231 cells assessed as upregulation of p21 level by Western blot analysis; format: functional, cell-based
MDA-MB-231 [23] = test: Effect on PI3K p85 expression in human MDA-MB-231 cells by Western blot analysis; format: functional, cell-based
MCF7 [24] = test: Induction of mitochondrial apoptosis in human MCF7 cells assessed as early apoptotic cells at 15 uM measured after 24 hrs by FITC -annexin V/PI double staining based flow cytometric analysis (reference value: 2.4%); format: functional
MDA-MB-231 [25] = test: Inhibition of PI3K p85 phosphorylation in human MDA-MB-231 cells by Western blot analysis; format: cell-based
MCF7 [26] = test: Inhibition of PTP1B expression in human MCF7 cells by Western blot analysis; format: functional, cell-based
MDA-MB-231 [27] = test: Induction of mitochondrial apoptosis in human MDA-MB-231 cells assessed as total apoptotic cells by fluorescein isothiocyanate -annexin V/PI double staining based flow cytometric analysis (reference value: 3.5%); format: functional
MDA-MB-231 [28] = test: Effect on Akt expression in human MDA-MB-231 cells by Western blot analysis; format: functional, cell-based
MCF7 [29] = test: Cell cycle arrest in human MCF-7 cells assessed as downregulation of cyclin E1 expression by Western blot analysis; format: functional, cell-based
MDA-MB-231 [30] = test: Antitumour activity against human MDA-MB-231 cells xenografted in BALB/c nude mouse assessed as tumour growth inhibition at 15 mg/kg, ip administered once for every other day for 20 days relative to control; format: functional; conditions: MDA-MB-231, ip, 480 h, time 20 day, read-out: TGI
MDA-MB-231 [31] = test: Cell cycle arrest in human MDA-MB-231 cells assessed as downregulation of CDK4 expression by Western blot analysis; format: functional, cell-based
MDA-MB-231 [32] = test: Antiproliferative activity against human MDA-MB-231 cells assessed as effect on cell viability at 0.56-5 uM for 24 hrs measured by MTT assay; format: functional, cell-based
MCF7 [33] = test: Induction of apoptosis in human MCF-7 cells assessed as increase in production of cleaved caspase-9 at 1.67 to 15 uM measured after 24 hrs by Western blot analysis; format: functional, cell-based; conditions: dose 1.67-15 µM
MDA-MB-231 [34] = test: Cell cycle arrest in human MDA-MB-231 cells assessed as downregulation of cyclin D3 expression by Western blot analysis; format: functional, cell-based
MCF7 [35] = test: Induction of mitochondrial apoptosis in human MCF-7 cells assessed as accumulation of reactive oxygen species by flow cytometry; format: functional, cell-based
MDA-MB-231 [36] = test: Induction of mitochondrial apoptosis in human MDA-MB-231 cells assessed as formation of apoptotic bodies by Hoechst 33258 staining based fluorescence microscopic assay; format: functional, cell-based

## CCCC/C=C/CCCCCCCCCC1(O)CC(=O)c2c(O)c(C)c(O)c(C)c2O1 (stereo unspecified)
MDA-MB-231 [1]
  Activity: 62.2%
MCF7 [2]
  IC50: 17.5 µM
MDA-MB-231 [3]
  Activity: Dose-Dependent Effect
MCF7 [4]
  Activity: Dose-Dependent Effect
MDA-MB-231 [5]
  Activity: Active
MDA-MB-231 [6]
  Activity: Dose-Dependent Effect
MCF7 [7]
  inhibition: Dose-Dependent Effect
MDA-MB-231 [8]
  Activity: 7%
[9]
  selectivity ratio: 6.78
MDA-MB-231 [10]
  Activity: Active
MCF7 [11]
  inhibition: Dose-Dependent Effect
[12]
  Activity: Not Active
MCF7 [13]
  Activity: inactive
MDA-MB-231 [14]
  viability at 5 µM: 82%
[15]
  selectivity ratio: 2.64
MCF7 [16]
  Activity: 8.9%
[17]
  IC50: 1.8 µM
MDA-MB-231 [18]
  Activity: Active
MCF7 [19]
  Activity: 68.7%
MCF7 [20]
  IC50: 17.5 µM
MCF7 [21]
  Activity: Dose-Dependent Effect
MDA-MB-231 [22]
  Activity: Dose-Dependent Effect
MDA-MB-231 [23]
  Activity: inactive
MCF7 [24]
  Activity: 7.8%
MDA-MB-231 [25]
  inhibition: Dose-Dependent Effect
MCF7 [26]
  Activity: Active
MDA-MB-231 [27]
  Activity: 11.8%
MDA-MB-231 [28]
  Activity: inactive
MCF7 [29]
  Activity: Dose-Dependent Effect
MDA-MB-231 [30]
  inhibition in vivo at 15 mg/kg: 53.6%
MDA-MB-231 [31]
  Activity: Dose-Dependent Effect
MDA-MB-231 [32]
  Activity: inactive
MCF7 [33]
  Activity: Dose-Dependent Effect
MDA-MB-231 [34]
  Activity: Dose-Dependent Effect
MCF7 [35]
  Activity: Active
MDA-MB-231 [36]
  Activity: Active

Source: ChEMBL document CHEMBL5030514, “Discovery of Anti-TNBC Agents Targeting PTP1B: Total Synthesis, Structure-Activity Relationship, In Vitro and In Vivo Investigations of Jamunones” (J Med Chem, 2021)
